In patent US20250134848A1, “METHOD OF ADMINISTRATION OF […] THE INDUCTION OF TUMOR ASSOCIATED ANTIGENS” (BryoLogyx Inc., priority 2022, published 2025):

Experiments:
CD22 [1] = details: B-cell tumors such as ALL and CLL; cited from earlier work
CD19 = CD19 expression in human PBMC, antibody binding capacity by flow cytometry; format: cell-based; details: FIG. 1
Protocol: (§1) The ability of bryostatin-1 to promote antigen expression was evaluated in vitro. Human peripheral blood mononuclear cells (PBMC) were cultured according to previously published methods (Ramakrishna et al., 2019). Briefly, cells were washed and then treated with either bryostatin-1 (1 nM) or DMSO (vehicle control) for different times as indicated, ranging from 45 min to 24 hrs. Antibody binding capacity (ABC) was measured by flow cytometry (NCI flow lab); and plotted (FIGS. 1 and 2), either directly or as fold change over DMSO/vehicle control.

CD19 and CD22 = test: Changes in expression of CD19 and CD22 in tumor cell lines and human cells after varying exposure times; format: cell-based
Protocol: We have shown that short exposure to bryostatin-1 in vitro is sufficient to elevate tumor-associated antigen expression. In experiments performed on numerous tumor cell lines and human cells, bryostatin-1 was administered for varying periods of time, ranging from 45 min to 24 hrs, and changes in the expression of CD19 and CD22 were measured. […] This elevation took time to become evident and was maximal at 72 h.

CD22 [2] = test: CD22 expression in human PBMC, antibody binding capacity by flow cytometry; format: cell-based; details: FIG. 2
Protocol: as §1

[3] = tested on: tumor associated antigen expression; details: animal experiments; cited from earlier work
antigen expression = details: FIGS. 3A and 3B; Ramakrishna et al. 2019; cited from earlier work
[4] = 1 nM, 45 min vs 3 hrs or 24 hrs
[5] = bryostatin-1 1 nM for 45 min, 3 hrs or 24 hrs

## CCC/C=C/C=C/C(=O)O[C@H]1/C(=C/C(=O)OC)C[C@H]2C[C@H]([C@@H](C)O)OC(=O)C[C@H](O)C[C@@H]3C[C@H](OC(C)=O)C(C)(C)[C@](O)(C[C@@H]4C/C(=C/C(=O)OC)C[C@H](/C=C/C(C)(C)[C@]1(O)O2)O4)O3 [bryostatin-1]
CD22 [1]
  cell-surface expression of CD22: increase cell-surface expression of CD22
CD19; [4]
  elevation of CD19 after 45 min incubation compared with longer incubations: same elevation in antigens as longer incubations
CD19; [5]
  expression of CD19: increases in expression of CD19
CD19 and CD22; exposure 45 min to 24 hrs
  time at which elevation of antigen expression was maximal: 72 h
CD19 and CD22; tumor cell lines and human cells, in vitro
  increase in antigen expression after short exposure (45 min) compared with 3 h or 24 h exposure: same level of increase in antigen expression as 3 h or 24 h exposure
CD22 [2]; [4]
  elevation of CD22 after 45 min incubation compared with longer incubations: same elevation in antigens as longer incubations
CD22 [2]; [5]
  expression of CD22: increases in expression of CD22
[3]
  tumor associated antigen expression after a single intraperitoneal administration: able to induce an elevation of tumor associated antigen expression
Antigen expression
  time for which the increase in antigen expression remains elevated: 7 days
